Results from PMC9116245, “New 1,2,3-triazole linked ciprofloxacin-chalcones induce DNA damage by inhibiting human topoisomerase I& II and tubulin polymerization” (Journal of Enzyme Inhibition and Medicinal Chemistry, 2022).

Assays:
Test in all cases: NCI one-dose screen
HCT-116 = type: cell-based, human; conditions: Homo sapiens; HCT-116, 10 µM; read-out: Growth Percent
Method: (§1) For screening of anticancer properties, all the developed compounds were chosen by the (NCI) for in-vitro antitumor evaluation. The assay was carried out using 59 human cancer cell lines obtained from nine tumour subpanels (breast, ovarian, melanoma, leukaemia, renal, CNS, lung, prostate, and colon cancer cell lines). Compounds were assessed at a 10 µM concentration. […] Also, hybrids 4a, 4b, 4e, 4i and 4j produced significant anti-proliferative effect in several cancer cells, particularly in leukaemia (RPMI-8226) and colon (HCT116) cells with growth percent of 47.87, −14.59, −24.56, −24.42, −15.84, −9.74, −53.36, −10.26, −31.29, and −39.51%, respectively.
(§2) The method description for NCI anticancer screening is provided in detail in the standard NCI-60 testing protocol.

RPMI-8226 = type: cell-based, human; conditions: Homo sapiens; RPMI-8226, 10 µM; read-out: Growth Percent
Method: as §1, §2

U251 = type: cell-based; conditions: Homo sapiens, U-251; U251, 10 µM; read-out: Growth Percent
Procedure, shortened: (§3)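 In vitro growth inhibition screen by the National Cancer Institute; compound concentration fixed at 10 µM; panel of 59 human tumour cell lines. Results given as percent growth.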

KM12 = type: cell-based; conditions: Homo sapiens; KM12, 10 µM; read-out: Growth Percent
Procedure, shortened: as §3

COLO 205 = type: cell-based; conditions: Homo sapiens; COLO 205, 10 µM; read-out: Growth Percent
Procedure, shortened: as §3

MALME-3M = type: cell-based; conditions: Homo sapiens, read-out: Growth Percent
Procedure, shortened: as §3

UO-31 = type: cell-based; conditions: Homo sapiens; UO-31, 10 µM; read-out: Growth Percent
Procedure, shortened: as §3

SF-268 = type: cell-based; conditions: Homo sapiens; SF-268, 10 µM; read-out: Growth Percent
Procedure, shortened: as §3

MDA-MB-435 = type: cell-based; conditions: Homo sapiens; MDA-MB-435, 10 µM; read-out: Growth Percent
Procedure, shortened: as §3

MDA-MB-231/ATCC = type: cell-based; conditions: Homo sapiens, read-out: Growth Percent
Procedure, shortened: as §3

NCI/ADR-RES = type: cell-based; conditions: Homo sapiens, read-out: Growth Percent
Procedure, shortened: as §3

786-0 = type: cell-based; conditions: Homo sapiens; 786-0, 10 µM; read-out: Growth Percent
Procedure, shortened: as §3

LOX IMVI = type: cell-based; conditions: Homo sapiens, read-out: Growth Percent
Procedure, shortened: as §3

BT-549 = type: cell-based; conditions: Homo sapiens; BT-549, 10 µM; read-out: Growth Percent
Procedure, shortened: as §3

MCF7 = type: cell-based; conditions: Homo sapiens; MCF7, 10 µM; read-out: Growth Percent
Procedure, shortened: as §3

T-47D = type: cell-based; conditions: Homo sapiens, T47D, read-out: Growth Percent
Procedure, shortened: as §3

MOLT-4 = type: cell-based; conditions: Homo sapiens; MOLT-4, 10 µM; read-out: Growth Percent
Procedure, shortened: as §3

HL-60(TB) = type: cell-based; conditions: Homo sapiens, read-out: Growth Percent
SK-MEL-5 = type: cell-based; conditions: Homo sapiens; SK-MEL-5, 10 µM; read-out: Growth Percent
Procedure, shortened: as §3

SW-620 = type: cell-based; conditions: Homo sapiens; SW-620, 10 µM; read-out: Growth Percent
Procedure, shortened: as §3

MDA-MB-468 = type: cell-based; conditions: Homo sapiens; MDA-MB-468, 10 µM; read-out: Growth Percent
Procedure, shortened: as §3

SK-MEL-2 = type: cell-based; conditions: Homo sapiens; SK-MEL-2, 10 µM; read-out: Growth Percent
Procedure, shortened: as §3

NCI-H226 = type: cell-based; conditions: Homo sapiens; NCI-H226, 10 µM; read-out: Growth Percent
Procedure, shortened: as §3

SR = type: cell-based; conditions: Homo sapiens, read-out: Growth Percent
Procedure, shortened: as §3

CCRF-CEM = type: cell-based; conditions: Homo sapiens, read-out: Growth Percent
Procedure, shortened: as §3

SF-295 = type: cell-based; conditions: Homo sapiens; SF-295, 10 µM; read-out: Growth Percent
Procedure, shortened: as §3

ACHN = type: cell-based; conditions: Homo sapiens, read-out: Growth Percent
Procedure, shortened: as §3

A498 = type: cell-based; conditions: Homo sapiens; A498, 10 µM; read-out: Growth Percent
Procedure, shortened: as §3

Compound | activity at 10 µM (HCT-116) [%] | activity at 10 µM (RPMI-8226) [%] | activity at 10 µM (U251) [%] | activity at 10 µM (KM12) [%] | activity at 10 µM (COLO 205) [%] | activity at 10 µM (MALME-3M) [%] | activity at 10 µM (UO-31) [%] | activity at 10 µM (SF-268) [%] | activity at 10 µM (MDA-MB-435) [%] | activity at 10 µM (MDA-MB-231/ATCC) [%] | activity at 10 µM (NCI/ADR-RES) [%] | activity at 10 µM (786-0) [%] | activity at 10 µM (LOX IMVI) [%] | activity at 10 µM (BT-549) [%] | activity at 10 µM (MCF7) [%] | activity at 10 µM (T-47D) [%] | activity at 10 µM (MOLT-4) [%] | activity at 10 µM (HL-60(TB)) [%] | activity at 10 µM (SK-MEL-5) [%] | activity at 10 µM (SW-620) [%] | also measured
O=C(/C=C/c1ccc(Cl)cc1)c1ccc(-n2cc(CN3CCN(c4cc5c(cc4F)c(=O)c(C(=O)O)cn5C4CC4)CC3)nn2)cc1 [Compound 4c, (E)-7-(4-((1-(4-(3-(4-chlorophenyl)acryloyl)phenyl)-1H-1,2,3-triazol-4-yl)methyl)piperazin-1-yl)-1-cyclopropyl-6-fluoro-4-oxo-1,4-dihydroquinoline-3-carboxylic acid] | 6.95 | -0.51 | 42.1 | 73.7 | 108 | 91.2 | 62.5 | 70.4 | 79.5 | 89.4 | 87 | 54.2 | 36.2 | 76.7 | 58.2 | 92.9 | 84.1 | 99.1 | 77.6 | 83.7 | activity at 10 µM (MDA-MB-468): 66%; activity at 10 µM (SK-MEL-2): 96.8%; activity at 10 µM (NCI-H226): 73%; activity at 10 µM (SR): 24.1%; activity at 10 µM (CCRF-CEM): 64.9%; activity at 10 µM (SF-295): 91.7%; activity at 10 µM (ACHN): 93.5%; activity at 10 µM (A498): 52.2%
O=C(/C=C/c1ccc(Br)cc1)c1ccc(-n2cc(CN3CCN(c4cc5c(cc4F)c(=O)c(C(=O)O)cn5C4CC4)CC3)nn2)cc1 [Compound 4d, (E)-7-(4-((1-(4-(3-(4-bromophenyl)acryloyl)phenyl)-1H-1,2,3-triazol-4-yl)methyl)piperazin-1-yl)-1-cyclopropyl-6-fluoro-4-oxo-1,4-dihydroquinoline-3-carboxylic acid] | 17.3 | 6.02 | 68.4 | 87.1 | 112 | 87.7 | 65.4 | 77.2 | 81.9 | 66.4 | 85.6 | 72.2 | 55.7 | 92.5 | 61.4 | 101 | 80.4 | 98.8 | 79.7 | 85.9 | activity at 10 µM (MDA-MB-468): 72.5%; activity at 10 µM (SK-MEL-2): 102%; activity at 10 µM (NCI-H226): 74.8%; activity at 10 µM (SR): 21.3%; activity at 10 µM (CCRF-CEM): 34.6%; activity at 10 µM (SF-295): 81.9%; activity at 10 µM (ACHN): 93.4%; activity at 10 µM (A498): 34.9%
Cc1ccc(/C=C/C(=O)c2ccc(-n3cc(CN4CCN(c5cc6c(cc5F)c(=O)c(C(=O)O)cn6C5CC5)CC4)nn3)cc2)cc1 [Compound 4f, (E)-1-cyclopropyl-6-fluoro-4-oxo-7-(4-((1-(4-(3-(p-tolyl)acryloyl)phenyl)-1H-1,2,3-triazol-4-yl)methyl)piperazin-1-yl)-1,4-dihydroquinoline-3-carboxylic acid] | 7.82 | 34.2 | 71.2 | 88.8 | 107 | 102 | 65.7 | 72.6 | 86.6 | 80.1 | 102 | 76.7 | 50.4 | 81.3 | 64.8 | 80 | 67.7 | 94.3 | 91.1 | 95.5 | activity at 10 µM (MDA-MB-468): 92.2%; activity at 10 µM (SK-MEL-2): 97.2%; activity at 10 µM (NCI-H226): 84.5%; activity at 10 µM (SR): 16.6%; activity at 10 µM (CCRF-CEM): 56.3%; activity at 10 µM (SF-295): 87.6%; activity at 10 µM (ACHN): 93.7%; activity at 10 µM (A498): 57.4%
COc1ccc(/C=C/C(=O)c2ccc(-n3cc(CN4CCN(c5cc6c(cc5F)c(=O)c(C(=O)O)cn6C5CC5)CC4)nn3)cc2)cc1 [Compound 4g, (E)-1-Cyclopropyl-6-fluoro-7-(4-((1-(4-(3-(4-methoxyphenyl)acryloyl)phenyl)-1H-1,2,3-triazol-4-yl)methyl)piperazin-1-yl)-4-oxo-1,4-dihydroquinoline-3-carboxylic acid] | 2.68 | 11.5 | 68.6 | 86.4 | 97.1 | 84.8 | 65.1 | 77.3 | 82.2 | 88.1 | 94.8 | 78.1 | 56.9 | 90 | 51.2 | 93.4 | 81.7 | 99 | 81.6 | 81.7 | activity at 10 µM (MDA-MB-468): 74.4%; activity at 10 µM (SK-MEL-2): 99.1%; activity at 10 µM (NCI-H226): 76.3%; activity at 10 µM (SR): 13.1%; activity at 10 µM (CCRF-CEM): 74.6%; activity at 10 µM (SF-295): 90.7%; activity at 10 µM (ACHN): 89.9%; activity at 10 µM (A498): 60.5%
CN(C)c1ccc(/C=C/C(=O)c2ccc(-n3cc(CN4CCN(c5cc6c(cc5F)c(=O)c(C(=O)O)cn6C5CC5)CC4)nn3)cc2)cc1 [Compound 4h, (E)-1-cyclopropyl-7–(4-((1–(4-(3-(4-(dimethylamino)phenyl)acryloyl)phenyl)-1H-1,2,3-triazol-4-yl)methyl)piperazin-1-yl)-6-fluoro-4-oxo-1,4-dihydroquinoline-3-carboxylic acid] | 8.04 | 44.3 | 73 | 84.1 | 101 | 96 | 61.9 | 71.5 | 77.4 | 75.5 | 103 | 65 | 56.9 | 73.7 | 59.2 | 86.7 | 86 | 98.8 | 86.2 | 98.5 | activity at 10 µM (MDA-MB-468): 77.1%; activity at 10 µM (SK-MEL-2): 95.5%; activity at 10 µM (NCI-H226): 84.6%; activity at 10 µM (SR): 63.2%; activity at 10 µM (CCRF-CEM): 84.3%; activity at 10 µM (SF-295): 86.9%; activity at 10 µM (ACHN): 89.8%; activity at 10 µM (A498): 64.5%
